Test results from PMC6258903 (Nature, 2014).
One block for each molecule: values may come before it.

Tests used:
Axl = target: T1, Axl (Homo sapiens, UniProt P30530); assay: Tracer-based kinase binding assay
T1 sequence (P30530 26-894): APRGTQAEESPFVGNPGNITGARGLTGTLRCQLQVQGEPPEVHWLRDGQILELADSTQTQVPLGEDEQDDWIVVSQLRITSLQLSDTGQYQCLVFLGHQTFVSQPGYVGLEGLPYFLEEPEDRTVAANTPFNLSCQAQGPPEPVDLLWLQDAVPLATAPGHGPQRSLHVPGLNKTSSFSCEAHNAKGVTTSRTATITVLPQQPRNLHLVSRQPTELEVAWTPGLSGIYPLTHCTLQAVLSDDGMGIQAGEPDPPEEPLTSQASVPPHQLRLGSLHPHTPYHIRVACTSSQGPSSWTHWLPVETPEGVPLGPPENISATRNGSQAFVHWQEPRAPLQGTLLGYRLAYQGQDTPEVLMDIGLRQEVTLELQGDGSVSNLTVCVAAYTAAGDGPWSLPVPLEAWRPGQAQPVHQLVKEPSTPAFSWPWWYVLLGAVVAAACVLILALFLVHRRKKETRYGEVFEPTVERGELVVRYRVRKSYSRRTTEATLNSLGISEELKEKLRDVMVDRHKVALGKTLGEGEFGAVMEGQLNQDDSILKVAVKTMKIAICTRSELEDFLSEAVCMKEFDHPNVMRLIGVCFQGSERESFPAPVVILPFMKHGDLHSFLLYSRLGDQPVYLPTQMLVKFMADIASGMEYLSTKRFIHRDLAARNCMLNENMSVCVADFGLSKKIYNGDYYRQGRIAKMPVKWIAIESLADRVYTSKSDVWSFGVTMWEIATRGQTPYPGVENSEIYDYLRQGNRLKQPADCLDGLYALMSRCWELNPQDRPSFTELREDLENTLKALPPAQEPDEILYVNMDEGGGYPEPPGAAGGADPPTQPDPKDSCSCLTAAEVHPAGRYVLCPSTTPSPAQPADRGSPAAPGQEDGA

[1] = system: 95 different cancer cell lines; assay: Proliferation assay on a panel of cancer cell lines; assay type: cell-based
RMA-Rae1 cells = assay: In vivo NK cell cytotoxicity towards RMA-Rae1 cells; settings: warfarin, Cbl-b+/+ mice treated for 7 days before inoculation
B16F10 melanoma = assay: B16F10 metastatic melanoma model, low dose warfarin in drinking water; assay type: in vivo, mice; settings: for melanoma metastases to the lungs and distal organs: low dose warfarin 0.5mg/l in drinking water
RMA-S cells = assay: In vivo NK cell cytotoxicity towards RMA-S cells; settings: Cbl-b+/+ mice treated for 7 days before inoculation
[2] = Prothrombine time and bleeding in warfarin-treated mice

Structure (SMILES): CCOc1ccn(-c2ccc(F)cc2)c(=O)c1C(=O)Nc1ccc(Oc2ccnc(N)c2Cl)c(F)c1 [BMS-777607/ASLAN002]
inhibitory activity of reference compounds in the Axl HTRF assay (Axl): showed inhibitory activities as expected

Structure (SMILES): Cc1ccc(NC(=O)c2ccc(CN3CCN(C)CC3)cc2)cc1Nc1nccc(-c2cccnc2)n1 [imatinib]
proliferation inhibition profile, specific kinase blockers ([1]; same panel, e.g. K562 cells): inhibit proliferation of only a few cell lines

Structure (SMILES): CN[C@@H]1C[C@H]2O[C@@](C)([C@@H]1OC)n1c3ccccc3c3c4c(c5c6ccccc6n2c5c31)C(=O)NC4 [staurosporine]
inhibitory activity of reference compounds in the Axl HTRF assay (Axl): showed inhibitory activities as expected

Structure (SMILES): CCN(CC)CCNC(=O)c1c(C)[nH]c(/C=C2\C(=O)Nc3ccc(F)cc32)c1C [sunitinib]
inhibitory activity of reference compounds in the Axl HTRF assay (Axl): showed inhibitory activities as expected

The next lines start with results.

IC50 ([1]; read-out: IC50 proliferation, non-specific kinase inhibitors): < 100 nM
Structure (SMILES): Cc1nc(Nc2ncc(C(=O)Nc3c(C)cccc3Cl)s2)cc(N2CCN(CCO)CC2)n1 [dasatinib]

prothrombine time / coagulopathy ([2]; 0.5mg/l in drinking water for 21 days): does not cause a coagulopathy
Structure (SMILES): CC(=O)CC(c1ccccc1)c1c(O)c2ccccc2oc1=O (stereo not drawn) [warfarin]
in vivo NK cell cytotoxicity towards RMA-Rae1 (RMA-Rae1 cells): enhanced in vivo NK cell cytotoxicity
melanoma metastases to the lungs and distal organs (B16F10 melanoma; Cbl-b defective mice): had no apparent effect
melanoma metastases to the lungs and distal organs (B16F10 melanoma; Cbl-b+/+ and Cbl-b+/- mice, day +16): markedly reduced melanoma metastases
metastatic melanomas (B16F10 melanoma; low dose warfarin, absence of NK1.1+ cells): abolished the effects of warfarin
in vivo NK cell cytotoxicity towards RMA-S (RMA-S cells): enhanced in vivo NK cell cytotoxicity
bleeding ([2]; warfarin-treated mice compared to vehicle controls): never observed neither spontaneous nor excessive bleeding
